In patent publication US20110230472A1, “RING-FUSED AZOLE DERIVATIVE HAVING PI3K-INHIBITING ACTIVITY” (Shionogi & Co., Ltd., priority 2008, published 2011):

Target: PI-3 kinase γ (Homo sapiens, UniProt P48736)
Assay: PI3Kγ inhibitory activity, PI3-kinase HTRF assay (inhibition ratio)
Format: biochemical
Settings: 0.5 h; compound at 10 μmol/L
How it was run: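 PI3Kγ preincubated 10 min with compound and PIP2 substrate (MgCl2, DTT), then ATP added for 30 min at room temperature. PIP3 detected by HTRF (665/620 nm ratio) after 18 h. Inhibition ratio at 50 or 10 μmol/L, normalised to no-compound and no-enzyme controls.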

PI-3 kinase γ, sequence (P48736 whole entry): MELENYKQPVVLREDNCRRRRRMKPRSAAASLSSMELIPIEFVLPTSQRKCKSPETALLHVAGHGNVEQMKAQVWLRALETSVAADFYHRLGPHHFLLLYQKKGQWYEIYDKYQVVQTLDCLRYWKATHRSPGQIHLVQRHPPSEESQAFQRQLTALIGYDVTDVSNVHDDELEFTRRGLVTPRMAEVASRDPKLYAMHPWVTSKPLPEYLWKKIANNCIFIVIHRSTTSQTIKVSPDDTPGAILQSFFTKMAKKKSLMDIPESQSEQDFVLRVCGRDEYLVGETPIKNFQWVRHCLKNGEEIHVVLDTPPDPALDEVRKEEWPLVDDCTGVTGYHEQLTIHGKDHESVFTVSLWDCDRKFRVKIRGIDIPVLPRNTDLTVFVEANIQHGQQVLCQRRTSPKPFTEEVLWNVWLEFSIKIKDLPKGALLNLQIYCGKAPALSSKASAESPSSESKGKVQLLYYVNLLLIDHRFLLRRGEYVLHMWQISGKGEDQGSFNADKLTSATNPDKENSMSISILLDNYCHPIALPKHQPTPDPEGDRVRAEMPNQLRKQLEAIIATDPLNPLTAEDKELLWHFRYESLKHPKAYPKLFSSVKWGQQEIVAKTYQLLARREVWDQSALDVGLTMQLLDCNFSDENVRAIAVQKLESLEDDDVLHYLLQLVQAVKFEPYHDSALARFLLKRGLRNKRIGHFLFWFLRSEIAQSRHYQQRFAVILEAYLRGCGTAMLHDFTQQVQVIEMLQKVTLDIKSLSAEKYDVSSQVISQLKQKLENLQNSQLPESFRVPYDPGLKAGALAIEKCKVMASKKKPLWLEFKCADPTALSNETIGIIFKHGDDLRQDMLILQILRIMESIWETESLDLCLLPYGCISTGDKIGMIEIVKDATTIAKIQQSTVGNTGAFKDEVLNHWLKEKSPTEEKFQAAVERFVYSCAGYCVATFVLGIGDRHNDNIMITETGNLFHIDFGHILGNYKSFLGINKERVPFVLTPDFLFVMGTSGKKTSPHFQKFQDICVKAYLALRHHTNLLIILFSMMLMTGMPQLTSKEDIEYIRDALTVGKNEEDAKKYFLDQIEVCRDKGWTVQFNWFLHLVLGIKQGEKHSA

Structure (SMILES)	inhibition at 10 µM [%]
CN1CCc2cc(N3CCn4nc(NC(=O)c5cc6cccnc6[nH]5)cc43)ccc2C1=O [Compound I-385]	91
COc1cc(N2CCc3nc(NC(=O)N/C(C)=C\C(=O)NC(C)(C)C)sc3C2)nc(OC)n1 [Compound I-392]	≥ 95
CC(C)NS(=O)(=O)c1cc(C(=O)Nc2cc3n(n2)CCN3c2ccc3c(c2)CCN(C)C3=O)cs1 [Compound I-428]	90
COc1cc(N2CCc3nc(NC(=O)Nc4ccccc4Cl)sc3C2)nc(OC)n1 [Compound I-430]	84
CN1CCc2cc(N3CCn4nc(NC(=O)c5csc(S(=O)(=O)N6CCCC6)c5)cc43)ccc2C1=O [Compound I-436]	≥ 95
CNS(=O)(=O)c1cc(C(=O)Nc2cc3n(n2)CCN3c2ccc3c(c2)CCN(C)C3=O)cs1 [Compound I-437]	≥ 95
CN1CCc2cc(N3CCn4nc(NC(=O)c5csc(C(=O)NCC(C)(C)C)c5)cc43)ccc2C1=O [Compound I-439]	≥ 95
CC(C)NC(=O)c1ccccc1NC(=O)Nc1nc2c(s1)CN(C(=O)OCc1ccccc1)CC2 [Compound I-441]	88
CN1CCc2cc(N3CCn4nc(NC(=O)N5CCCC5)cc43)ccc2C1=O [Compound I-453]	76
COc1cc(N2CCc3nc(NC(=O)c4ccc(C)o4)sc3C2)nc(OC)n1 [Compound I-456]	87
CCOc1ccc(C(=O)Nc2nc3c(s2)CN(c2cc(OC)nc(OC)n2)CC3)o1 [Compound I-457]	88
COc1cc(N2CCc3nc(NC(=O)c4ccc(C)s4)sc3C2)nc(OC)n1 [Compound I-458]	92
COc1cc(N2CCc3nc(NC(=O)c4ccsc4)sc3C2)nc(OC)n1 [Compound I-459]	92
CC(C)Oc1cccc(C(=O)Nc2cc3n(n2)CCN3c2ccc3c(c2)CCN(C)C3=O)c1 [Compound I-463]	≥ 95
CN1CCc2cc(N3CCn4nc(NC(=O)c5cccc(C(=O)OC(C)(C)C)c5)cc43)ccc2C1=O [Compound I-465]	≥ 95
CN1CCc2cc(N3CCn4nc(NC(=O)c5cccc(NC(=O)OC(C)(C)C)c5)cc43)ccc2C1=O [Compound I-466]	83
COCn1ccc(C(=O)Nc2cc3n(n2)CCN3c2ccc3c(c2)CCN(C)C3=O)n1 [Compound I-467]	≥ 95
CN1CCc2cc(N3CCn4nc(NC(=O)c5cccc(OC(C)(C)C(=O)OC(C)(C)C)c5)cc43)ccc2C1=O [Compound I-469]	85
CC(C)NC(=O)Nc1cccc(C(=O)Nc2cc3n(n2)CCN3c2ccc3c(c2)CCN(C)C3=O)c1 [Compound I-470]	79

Structure (SMILES)	inhibition at 10 µM [%]
CC(=O)Nc1nc2ccn(-c3cccc(Cl)c3)c2s1 [Compound I-471]	91
CN1CCc2cc(N3CCn4nc(NC(=O)c5cccc(OC(C)(C)C(=O)O)c5)cc43)ccc2C1=O [Compound I-474]	≥ 95
CCCOc1ccc(C(=O)Nc2cc3n(n2)CCN3c2ccc3c(c2)CCN(C)C3=O)cc1 [Compound I-476]	94
CCCCOc1ccc(C(=O)Nc2cc3n(n2)CCN3c2ccc3c(c2)CCN(C)C3=O)cc1 [Compound I-477]	82
CN1CCc2cc(N3CCn4nc(NC(=O)c5ccc(NC(=O)OC(C)(C)C)cc5)cc43)ccc2C1=O [Compound I-480]	86
COc1ccc(C(=O)N2CCc3nc(NC(=O)Nc4ccccc4C(=O)NC(C)C)sc3C2)cc1 [Compound I-483]	≥ 95
COc1cccc(C(=O)N2CCc3nc(NC(=O)Nc4ccccc4C(=O)NC(C)C)sc3C2)c1 [Compound I-484]	≥ 95
COc1ccccc1C(=O)N1CCc2nc(NC(=O)Nc3ccccc3C(=O)NC(C)C)sc2C1 [Compound I-485]	79
CC(C)NC(=O)c1ccccc1NC(=O)Nc1nc2c(s1)CN(C(=O)c1ccccc1)CC2 [Compound I-488]	88
CN1CCc2cc(N3CCn4nc(NC(=O)c5ccccc5NC(=O)OC(C)(C)C)cc43)ccc2C1=O [Compound I-493]	91
CC(C)NC(=O)Cc1cc(C(=O)Nc2cc3n(n2)CCN3c2ccc3c(c2)CCN(C)C3=O)cs1 [Compound I-495]	≥ 95
CCCNC(=O)Cc1cc(C(=O)Nc2cc3n(n2)CCN3c2ccc3c(c2)CCN(C)C3=O)cs1 [Compound I-496]	≥ 95
CCOC(=O)CNC(=O)Nc1cc2n(n1)CCN2c1ccc2c(c1)CCN(C)C2=O [Compound I-501]	81
CN1CCc2cc(N3CCn4nc(NC(=O)[C@@H]5CCC(=O)N5)cc43)ccc2C1=O [Compound I-506]	84
CC(C)NC(=O)c1ccccc1NC(=O)Nc1nc2c(s1)CN(C(=O)c1cccc(Cl)c1)CC2 [Compound I-511]	75
Cc1cccc(C(=O)N2CCc3nc(NC(=O)Nc4ccccc4C(=O)NC(C)C)sc3C2)c1 [Compound I-514]	76
Cc1ccc(C(=O)N2CCc3nc(NC(=O)Nc4ccccc4C(=O)NC(C)C)sc3C2)cc1 [Compound I-515]	85
CN1CCc2cc(N3CCn4nc(NC(=O)NCC(=O)O)cc43)ccc2C1=O [Compound I-522]	94
CN1CCc2cc(N3CCn4nc(NC(=O)c5cnc(N6CCC[C@H]6C(=O)OC(C)(C)C)s5)cc43)ccc2C1=O [Compound I-525]	94

The remaining lines, values ahead:

inhibition at 10 µM [%]	Structure (SMILES)
≥ 95	CN1CCc2cc(N3CCn4nc(NC(=O)c5ccc(N)nc5)cc43)ccc2C1=O [Compound I-386]
≥ 95	CN1CCc2cc(N3CCn4nc(NC(=O)c5ccc(C(=O)O)s5)cc43)ccc2C1=O [Compound I-391]
76	CN1CCc2cc(N3CCn4nc(NC(=O)c5csc(Br)c5)cc43)ccc2C1=O [Compound I-396]
≥ 95	COC(=O)c1csc(C(=O)Nc2cc3n(n2)CCN3c2ccc3c(c2)CCN(C)C3=O)c1 [Compound I-399]
93	CN1CCc2cc(N3CCn4nc(NC(=O)c5cc(C(=O)O)cs5)cc43)ccc2C1=O [Compound I-401]
78	CN1CCc2cc(N3CCn4nc(NC(=O)c5ccc(C(N)=O)s5)cc43)ccc2C1=O [Compound I-404]
≥ 95	CNC(=O)c1ccc(C(=O)Nc2cc3n(n2)CCN3c2ccc3c(c2)CCN(C)C3=O)s1 [Compound I-406]
≥ 95	COCCNC(=O)c1ccc(C(=O)Nc2cc3n(n2)CCN3c2ccc3c(c2)CCN(C)C3=O)s1 [Compound I-410]
≥ 95	CN1CCc2cc(N3CCn4nc(NC(=O)c5ccc(C(=O)NCC(=O)OC(C)(C)C)s5)cc43)ccc2C1=O [Compound I-411]
87	CN1CCc2cc(N3CCn4nc(NC(=O)c5csc(C(=O)OC(C)(C)C)c5)cc43)ccc2C1=O [Compound I-413]
93	CN1CCc2cc(N3CCn4nc(NC(=O)c5csc(C(=O)O)c5)cc43)ccc2C1=O [Compound I-418]
83	CC(C)NC(=O)c1cc(C(=O)Nc2cc3n(n2)CCN3c2ccc3c(c2)CCN(C)C3=O)cs1 [Compound I-419]
88	CC(C)c1cc(C(=O)Nc2cc3n(n2)CCN3c2ccc3c(c2)CCN(C)C3=O)cs1 [Compound I-427]
≥ 95	CC(C)N(C)C(=O)c1cc(C(=O)Nc2cc3n(n2)CCN3c2ccc3c(c2)CCN(C)C3=O)cs1 [Compound I-433]
86	CN1CCc2cc(N3CCn4nc(NC(=O)c5csc(C(=O)NC(C)(C)C)c5)cc43)ccc2C1=O [Compound I-438]
92	CC(=O)c1ccc(C(=O)Nc2cc3n(n2)CCN3c2ccc3c(c2)CCN(C)C3=O)s1 [Compound I-440]
84	Cc1ccsc1C(=O)Nc1cc2n(n1)CCN2c1ccc2c(c1)CCN(C)C2=O [Compound I-444]

inhibition at 10 µM [%]	Structure (SMILES)
89	CN1CCc2cc(N3CCn4nc(NC(=O)c5sccc5Cl)cc43)ccc2C1=O [Compound I-445]
≥ 95	Cc1ncsc1C(=O)Nc1cc2n(n1)CCN2c1ccc2c(c1)CCN(C)C2=O [Compound I-449]
≥ 95	CN1CCc2cc(N3CCn4nc(NC(=O)C(=O)c5cccs5)cc43)ccc2C1=O [Compound I-450]
90	CN(C)C(=O)c1ccc(C(=O)Nc2cc3n(n2)CCN3c2ccc3c(c2)CCN(C)C3=O)s1 [Compound I-451]
95	CN1CCc2cc(N3CCn4nc(NC(=O)c5cccc(O)c5)cc43)ccc2C1=O [Compound I-461]
≥ 95	COc1cccc(C(=O)Nc2cc3n(n2)CCN3c2ccc3c(c2)CCN(C)C3=O)c1 [Compound I-462]
≥ 95	CN1CCc2cc(N3CCn4nc(NC(=O)c5cccc(F)c5)cc43)ccc2C1=O [Compound I-464]
≥ 95	CC(Oc1cccc(C(=O)Nc2cc3n(n2)CCN3c2ccc3c(c2)CCN(C)C3=O)c1)C(N)=O (centres unmarked) [Compound I-468]
≥ 95	CN1CCc2cc(N3CCn4nc(NC(=O)c5cccc(C(=O)O)c5)cc43)ccc2C1=O [Compound I-472]
≥ 95	CN1CCc2cc(N3CCn4nc(NC(=O)c5cccc(N)c5)cc43)ccc2C1=O [Compound I-473]
92	CN1CCc2cc(N3CCn4nc(NC(=O)c5ccc(S(C)(=O)=O)cc5)cc43)ccc2C1=O [Compound I-481]
≥ 95	COC(=O)Nc1ccccc1C(=O)Nc1cc2n(n1)CCN2c1ccc2c(c1)CCN(C)C2=O [Compound I-482]
≥ 95	CN1CCc2cc(N3CCn4nc(NC(=O)c5ccc(N)cc5)cc43)ccc2C1=O [Compound I-489]
78	CNc1ccccc1C(=O)Nc1cc2n(n1)CCN2c1ccc2c(c1)CCN(C)C2=O [Compound I-494]
81	CN1CCc2cc(N3CCn4nc(NC(=O)c5ccccc5N)cc43)ccc2C1=O [Compound I-500]
92	CN1CCc2cc(N3CCn4nc(NC(=O)c5ccc(C(=O)O)cc5)cc43)ccc2C1=O [Compound I-524]
